These are literature values, as cited in patent publication US10357461B2, “Physically dispersed, molecularly dissolved and/or chemically bound drug(s) in an empty, hard capsule shell composition” (priority 2005, dated 2019).

Converted amounts (≈) assume the structure as drawn.

The conditions of data set [1]: people taking metformin.

Regarding `C[C@]12CCC(=O)C=C1[C@@H]1C[C@@H]1[C@H]1[C@@H]3[C@@H]4C[C@@H]4[C@@]4(CCC(=O)O4)[C@@]3(C)CC[C@@H]12` [Drospirenone], the water solubility (water at 25° C.) was 1.8 µg/mL (≈ 0.00491 mM).
As to `COc1cc2c(c(OC)c1OC)-c1ccc(OC)c(=O)cc1[C@@H](NC(C)=O)CC2` [Colchicine], the solubility in water (water) was 7000 µg/mL (≈ 17.5 mM).
With `CN(C)C(=N)N=C(N)N` [metformin], in data set [1], the “people taking the drug who face vitamin B12 deficiency” value is given as around 30%.
